These results are taken from patent publication US20050014734A1 (Genovate Biotechnology Co., Ltd., priority 2003, published 2005).

The conditions of data set [1]: polymorph; cited from earlier work.
The conditions of data set [2]: oral administration; cited from earlier work.
Another data set deals with IL-1β. Nature of the data set: Serum IL-1β by ELISA in the same SLE study. Type of data set: in vivo, human. The note with it: after 24 weeks of 200 mg/day DHEA orally, mean ± SD, n = 15, before treatment 9.94 ± 8.92. Here is the method: (§1) Baseline prednisone (less than 10 mg/day) and other concomitant SLE medications were held constant. The serum levels of cytokines including IL-1, IL-2, interferon-γ, IL-4, and IL-10 were determined by ELISA. The mean change from baseline to 24 weeks of therapy was analyzed. See, below.
(§2) See, Chang et al., Arthritis Rheum., 2002, 46(11):2924-27. The subjects enrolled in the study were adult women with SLE according to American College of Rheumatology (ACR) criteria (see, e.g., Tan, et al., Arthritis Rheum., 1982, 25:1271-7) and who were receiving a prednisone dose (or its corticosteroid equivalent) of 1 to 10 mg/day at the time they entered the study. […]
(§3) Serum testosterone, estradiol and cytokine profiles were measured at baseline and at last visit (i.e., after 24 weeks). Different serum cytokines including […], IL-2, IFN-γ, IL-4, and […] in the subjects were measured using ELISA kits (R&D, Minneapolis, Minn.) according to the manufacturer's instructions.
(§4) Comparisons between groups were done through an independent t-test, while comparisons within groups were done through a paired t-test. All statistical tests were evaluated at a 0.05 level of significance.

In data set [3] the test system is NZB/NZW mouse model of SLE. The note with it: cited from earlier work.
Data set [4] deals with patients with mild to moderate SLE. The note with it: cited from earlier work.
Another data set concerns Th2 cells. The note with it: Th2 cells stimulated by retrovirus infection; cited from earlier work.
Another data set concerns IL-10. Nature of the data set: Serum IL-10 by ELISA in randomized, double-blind, placebo-controlled study in women with active SLE. It counts as in vivo, human. The method, then:
as §1, §2, §3, §4

The subject of data set [5] is human marrow and mononuclear cells. The conditions noted are these: in vitro; cited from earlier work.
The subject of data set [6] is peripheral blood mononuclear cells (PBMCs) from adult male lupus patients. The note with it: pre-incubation with DHEA, concanavalin A stimulated PBMCs; cited from earlier work.
Another data set deals with estradiol. Briefly: Hormone determination: serum estradiol in SLE study. It counts as in vivo, human. The note with it: 200 mg/day DHEA, 24 weeks. Here is the method: See, Chang et al., Arthritis Rheum., 2002, 46(11):2924-27. The subjects enrolled in the study were adult women with SLE according to American College of Rheumatology (ACR) criteria (see, e.g., Tan, et al., Arthritis Rheum., 1982, 25:1271-7) and who were receiving a prednisone dose (or its corticosteroid equivalent) of 1 to 10 mg/day at the time they entered the study. Subjects selected for the study had to have active SLE, as defined by a Systemic Lupus Activity Measure (SLAM) score of ≧7, see, e.g., Liang, et al., Arthritis Rheum., 1989, 32:1107-18, and a baseline Systemic Lupus Erythematosus Disease Activity Index (SLEDAI) score ≧2. See, Bombardier, et al., Arthritis Rheum., 1992, 35:630-40.
Subjects that were under treatment with dydroxychloroquine, azathioprine, methotrexate, or cyclophosphamide or a combination thereof, had to have been on a stable regimen with no change in dose and drug combination for at least 6 weeks prior to entry into the study. Subjects who were receiving androgens, immunoglobulins, cyclosporine A, or other immunosuppressive agents (except those noted) were excluded from the study.
as §3

Where [7] appears, read: 200 mg/day for 12 months, 381 women with mild/moderate SLE.
Setting [8] is: oral daily doses of 200 mg, mild to moderate SLE, van Vollenhoven et al.

Entries after “also recorded” stand apart in the source; their conditions may differ. Where two headings read alike, the source gives them in different places.

`C[C@]12CC[C@H](O)CC1=CC[C@@H]1[C@@H]2CC[C@]2(C)C(=O)CC[C@@H]12` [DHEA form I, dehydroepiandrosterone]: the Stability entry in data set [1] is reported as “highly stable”.
As for `C[C@]12CC[C@H](O)CC1=CC[C@@H]1[C@@H]2CC[C@]2(C)C(=O)CC[C@@H]12` [DHEA form II, dehydroepiandrosterone], the Stability entry in [1] was “stable under typical ambient conditions”. For the same compound, the Rate of absorption result in [2] is on record as “rapid rate of absorption (greater than the form I polymorph)”.
Turning to `C[C@]12CC[C@H](O)CC1=CC[C@@H]1[C@@H]2CC[C@]2(C)C(=O)CC[C@@H]12` [DHEA, dehydroepiandrosterone], in the data set on IL-1β, the IL-1β after treatment turned out to be 9.20 ± 6.49 pg/mL. For the same compound, in data set [3], the “Onset of disease and mortality” value is “significantly delayed onset of disease and a reduction in mortality”. In data set [4] (setting [7]), the Bone mineral density result is on record as “prevented loss of bone mineral density in a significantly greater proportion of patients than placebo”; the “SLE disease and symptoms” value is “improved or stabilized SLE disease and its symptoms without clinical deterioration”. In addition, the Prednisone reduction result in data set [4] (200 mg/day, women with active lupus, phase II/III, Petri et al. 2002) is reported as “enabled prednisone reduction to physiologic levels in a significantly greater proportion of patients than placebo”. Moreover, in [4] (setting [8]), the “Steroid-sparing effect and flares” value is “may have steroid-sparing effects and reduce flares”; the Tolerability entry is on record as “well-tolerated”. In addition, in data set [4] (women with lupus, Chang et al. 2002), the Tolerability entry is given as “well-tolerated”. In addition, the “Production of IL-6 and tumor necrosis factor alpha” value in the data set on Th2 cells was “suppressed the production of cytokines IL-6 and tumor necrosis factor alpha”. In addition, the “Effect on IL-10 level (in words)” value in the data set on IL-10 (200 mg/day DHEA for 24 weeks, women with SLE, from baseline) is recorded as “significant reduction; also recorded: significant IL-10 suppression”. In addition, the IL-10 after treatment with IL-10 (serum, last visit after 24 weeks of 200 mg/day DHEA orally, mean ± SD, n = 15, before treatment 9.21 ± 6.75, p=0.045 vs placebo, p=0.029 vs baseline) was found to be 1.89 ± 1.47 pg/mL. In [5], the “Secretion of IL-6” value is recorded as “reduce secretion of IL-6”. Besides, the IL-4 production result in [6] is reported as “reduced the IL-4 production”. Besides, the “Estradiol change at last visit, mean” value with estradiol (baseline mean 123) was -48 pg/mL. Also, the “Estradiol change at last visit, median” value with estradiol (baseline median 104) was -39 pg/mL. For the same compound, in the data set on estradiol (placebo 31.5), the “Median decrease in estradiol” value was found to be 39.3 pg/mL.
